In patent US7713994B2 (Wyeth LLC, priority 2005, dated 2010):
Several values for one entry are separate records, joined by “and”; a condition that tells them apart may be missing. Equal entries are not always repeated. Where two headings read alike, the source gives them in different places.

What was measured:
[1] = molecular target: T1, cyclin D1/cdk 4 enzyme (Homo sapiens, UniProt P11802); test: CDK4 ELISA kinase assay (phospho-Rb ser 795 detection); type: biochemical
T1 construct: made in house; host or cells: Sf9 insect cells, recombinant baculovirus
T1 sequence (P11802 whole entry, species assumed): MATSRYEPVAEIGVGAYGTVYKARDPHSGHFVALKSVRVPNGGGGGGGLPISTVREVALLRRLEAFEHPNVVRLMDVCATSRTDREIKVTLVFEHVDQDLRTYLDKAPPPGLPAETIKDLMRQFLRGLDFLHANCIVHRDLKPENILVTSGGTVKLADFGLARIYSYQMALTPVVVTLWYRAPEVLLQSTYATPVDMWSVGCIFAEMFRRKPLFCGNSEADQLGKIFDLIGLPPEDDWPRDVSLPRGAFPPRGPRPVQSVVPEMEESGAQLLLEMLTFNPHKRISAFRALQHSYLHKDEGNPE
T1 sequence (P24385 whole entry partner, species assumed): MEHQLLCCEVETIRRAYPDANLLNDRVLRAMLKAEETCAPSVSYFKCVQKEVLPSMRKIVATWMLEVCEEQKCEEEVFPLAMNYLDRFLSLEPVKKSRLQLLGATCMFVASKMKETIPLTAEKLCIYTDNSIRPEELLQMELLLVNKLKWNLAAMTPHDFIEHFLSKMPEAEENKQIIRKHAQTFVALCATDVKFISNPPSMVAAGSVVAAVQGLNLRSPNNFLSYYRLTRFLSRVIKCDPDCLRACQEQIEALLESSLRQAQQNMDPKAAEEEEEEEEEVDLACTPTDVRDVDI
How it was run: (§1)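 Sf9-derived cyclin/CDK, 200 μM ATP, immobilized GST-Rb; 30° C/1 h. Detection: phospho-Ser795 Ab, HRP, TMB, OD450.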

[2] = molecular target: T2, cyclin E/CDK2 enzyme (Homo sapiens, UniProt P24941); test: CDK2 ELISA kinase assay (phospho-Rb ser 795 detection); type: biochemical
T2 construct: made in house; host or cells: Sf9 insect cells, recombinant baculovirus
How it was run: as §1

[3] = molecular target: T3, cyclin B/CDK1 enzyme (Homo sapiens, UniProt P06493); test: CDK1 ELISA kinase assay (phospho-Rb ser 795 detection); type: biochemical
T3 construct: purchased New England BioLabs; host or cells: Sf9 insect cells, recombinant baculovirus
T3 sequence (P06493 whole entry): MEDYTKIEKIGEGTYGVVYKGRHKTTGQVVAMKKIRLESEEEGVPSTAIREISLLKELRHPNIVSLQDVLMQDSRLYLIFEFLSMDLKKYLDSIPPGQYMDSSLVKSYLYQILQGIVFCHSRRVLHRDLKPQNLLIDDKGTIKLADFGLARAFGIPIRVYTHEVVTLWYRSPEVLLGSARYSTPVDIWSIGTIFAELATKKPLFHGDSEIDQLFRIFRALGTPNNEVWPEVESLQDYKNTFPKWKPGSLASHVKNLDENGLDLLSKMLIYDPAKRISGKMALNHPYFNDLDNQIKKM
T3 sequence (P14635 whole entry partner): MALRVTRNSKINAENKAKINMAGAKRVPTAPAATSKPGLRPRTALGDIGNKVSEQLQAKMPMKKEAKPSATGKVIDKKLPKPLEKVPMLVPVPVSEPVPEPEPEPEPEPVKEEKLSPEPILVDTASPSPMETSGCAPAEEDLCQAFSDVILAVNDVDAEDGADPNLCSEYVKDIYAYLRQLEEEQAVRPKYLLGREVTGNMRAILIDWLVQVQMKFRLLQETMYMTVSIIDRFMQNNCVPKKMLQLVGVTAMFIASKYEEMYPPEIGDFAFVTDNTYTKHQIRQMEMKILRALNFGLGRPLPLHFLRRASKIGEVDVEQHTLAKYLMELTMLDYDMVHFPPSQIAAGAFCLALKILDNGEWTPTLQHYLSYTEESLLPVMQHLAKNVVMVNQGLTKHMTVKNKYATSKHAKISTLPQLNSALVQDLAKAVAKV
How it was run: as §1

[4] = system: BT474; test: Cytotoxicity assay (SRB), BT474; type: cell-based; conditions: Homo sapiens, BT-474, 144 h, read-out: In Vitro Cellular Activity IC50 BT474
How it was run: (§2)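 Protein staining with sulforhodamine B after cold TCA fixation served as the survival endpoint (A540, relative to untreated cells). Before staining, cells were incubated with compound at 37 °C, 7% CO2 for 3 days, or 6 days for BT474.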

[5] = system: HCT-116; test: Cytotoxicity assay (SRB), HCT-116; type: cell-based; conditions: Homo sapiens, HCT-116, 72 h, read-out: In Vitro Cellular Activity IC50 HCT116
How it was run: as §2

[6] = system: LoVo; test: Cytotoxicity assay (SRB), LoVo; type: cell-based; conditions: Homo sapiens, LoVo, 72 h, read-out: In Vitro Cellular Activity IC50 LOVO
How it was run: as §2

[7] = system: MCF-7; test: Cytotoxicity assay (SRB), MCF-7; type: cell-based; conditions: Homo sapiens, MCF7, 72 h, read-out: In Vitro Cellular Activity IC50 MCF-7
How it was run: as §2

[8] = I.V. and P.O. Dosing in Mice; type: in vivo; conditions: for AUC(0-inf) / bioavailability: mouse, in vivo; for bioavailability: po 50 mg/kg vs i.v. 2 mg/kg
[9] = In Vitro Enzyme Assays, 200 μM ATP, read-out: CDK4 IC50
[10] = In Vitro Enzyme Assays, read-out: CDK2 IC50
[11] = In Vitro Enzyme Assays, read-out: CDK1 IC50
[12] = iv, 2 mg/kg, dose i.v. 2 mg/kg, read-out: aucinf obs (i.v.)
[13] = po, 50 mg/kg, dose po 50 mg/kg, read-out: aucinf obs (po)
[14] = dose i.v. 2 mg/kg, second value, (methocel/tween)
[15] = In Vitro Enzyme Assay, cyclin E/CDK2, read-out: CDK2 IC50
[16] = In Vitro Enzyme Assay, cyclin D1/cdk 4, read-out: CDK4 IC50
[17] = In Vitro Enzyme Assay, cyclin B/CDK1, read-out: CDK1 IC50

Compound | melting point | Cl_obs ([8]; dose i.v. 2 mg/kg) | Vss_obs ([8]; dose i.v. 2 mg/kg) | HL_Lambda_z ([8]; dose po 50 mg/kg) | AUC(0-inf) [8, 12] | AUC(0-inf) [8, 13] | bioavailability ([8]; po, 50 mg/kg) | IC50 [2, 15] | IC50 [1, 16] | IC50 [3, 17] | IC50 ([4]; BT474 cells, 6 days, SRB) | IC50 ([6]; LoVo cells, 3 days, SRB) | IC50 ([5]; HCT116 cells, 3 days, SRB) | IC50 ([7]; MCF-7 cells, 3 days, SRB) | further results
CN1CCN(c2ccc(N/C=C3\C(=O)NC(=O)c4ccc(-c5ccsc5)cc43)cc2)CC1 [Example 107, (4Z)-4-({[4-(4-Methylpiperazin-1-yl)phenyl]amino}methylene)-6-thien-3-ylisoquinoline-1,3(2H,4H)-dione] | 224 to 226 °C | 2.22 L/h/kg | 11 L/kg | 7.4 h | 0.901 µg·h/mL | 4.1 µg·h/mL | 18.2% | – | – | – | – | – | – | – | IC50 [1, 9]: 0.08 µM; IC50 [2, 10]: > 50 µM; IC50 [3, 11]: > 50 µM; IC50 ([4]; BT474 cells, SRB, 6 days): 2.5 µM; IC50 ([5]; HCT116 cells, SRB, three days): 1.4 µM; IC50 ([6]; LoVo cells, SRB, three days): 2.3 µM; IC50 ([7]; MCF-7 cells, SRB, three days): 2.3 µM
CCCOc1ccc(CN/C=C2\C(=O)NC(=O)c3ccc(I)cc32)cc1O [Example 178, (4Z)-4-{[(3-Hydroxy-4-propoxybenzyl)amino]methylene}-6-iodoisoquinoline-1,3(2H,4H)-dione] | – | 1.98 L/h/kg | 1.5 L/kg | 6.1 h | 0.999 µg·h/mL | 0.36 µg·h/mL | 14% | – | – | – | – | – | – | – | IC50 [3, 11]: 13.9 µM; IC50 ([4]; BT474 cells, SRB, 6 days): 0.62 µM; IC50 ([5]; HCT116 cells, SRB, three days): 0.65 µM; IC50 ([6]; LoVo cells, SRB, three days): 0.74 µM; IC50 ([7]; MCF-7 cells, SRB, three days): 1.8 µM
CCCOc1cnc(CNC=C2C(=O)NC(=O)c3ccc(I)cc32)cc1O [Example 364, 4-{[(4-Hydroxy-5-propoxy-pyridin-2-ylmethyl)-amino]-methylene}-6-iodo-4H-isoquinoline-1,3-dione] | – | 0.18 L/h/kg | 0.2 L/kg | 1.8 h | 11 µg·h/mL | 17.2 µg·h/mL | 6.3% | – | – | – | – | – | – | – | IC50 [1, 9]: 0.03 µM; IC50 [2, 10]: 1.6 µM; IC50 [3, 11]: 25.3 µM; IC50 ([4]; BT474 cells, SRB, 6 days): 0.34 µM; IC50 ([5]; HCT116 cells, SRB, three days): 0.73 µM; IC50 ([6]; LoVo cells, SRB, three days): 0.52 µM; IC50 ([7]; MCF-7 cells, SRB, three days): 0.88 µM; Cl_obs [8, 14]: 0.126 L/h/kg; Vss_obs [8, 14]: 0.1 L/kg; HL_Lambda_z ([8]; dose po 50 mg/kg, second value, (methocel/tween)): 2.4 h; AUC(0-inf) ([8]; iv, 2 mg/kg, dose i.v. 2 mg/kg, second value, (methocel/tween), read-out: aucinf obs (i.v.)): 15.8 µg·h/mL; AUC(0-inf) ([8]; po, 50 mg/kg, dose po 50 mg/kg, second value, (methocel/tween), read-out: aucinf obs (po)): 5.35 µg·h/mL; bioavailability ([8]; po, 50 mg/kg, second value, (methocel/tween)): 1.4%
O=C1NC(=O)c2ccc(I)cc2/C1=C/NCc1ccc(-c2ccoc2)c(O)c1 [Example 506, 4-[(4-Furan-3-yl-3-hydroxy-benzylamino)-methylene]-6-iodo-4H-isoquinoline-1,3-dione] | – | 4.74 L/h/kg | 6.7 L/kg | 2.6 h | 0.423 µg·h/mL | 5.59 µg·h/mL | 53% | 4.7 µM | – | – | 0.29 µM | 0.41 µM | – | – | –
O=C1NC(=O)c2ccc(I)cc2/C1=C/NCc1ccn(-c2ccsc2)c(=O)c1 [Example 539, (4Z)-6-Iodo-4-[({[2-oxo-1-(3-thienyl)-1,2-dihydropyridin-4-yl]methyl}amino)methylene]isoquinoline-1,3(2H,4H)-dione] | – | 1.26 L/h/kg | 0.3 L/kg | 0.8 h | 1.56 µg·h/mL | 0.044 µg·h/mL | 0.12% | 41.5 µM | 0.29 µM | > 50 µM | – | – | – | – | IC50 [4]: 0.33 µM; IC50 [5]: 0.34 µM; IC50 [6]: 0.16 µM; IC50 [7]: 0.24 µM

Further lines, with some results ahead:

melting point | Cl_obs ([8]; dose i.v. 2 mg/kg) | Vss_obs ([8]; dose i.v. 2 mg/kg) | HL_Lambda_z ([8]; dose po 50 mg/kg) | AUC(0-inf) [8, 12] | AUC(0-inf) [8, 13] | bioavailability ([8]; po, 50 mg/kg) | IC50 [2, 15] | IC50 [1, 16] | IC50 [3, 17] | Compound | IC50 ([4]; BT474 cells, 6 days, SRB) | IC50 ([6]; LoVo cells, 3 days, SRB) | IC50 ([5]; HCT116 cells, 3 days, SRB) | IC50 ([7]; MCF-7 cells, 3 days, SRB) | further results
– | 0.84 L/h/kg | 0.5 L/kg | 0.5 h | 2.36 µg·h/mL | 0.039 µg·h/mL | 0.07% | > 50 µM and 41.5 µM | 0.27 µM | 29.6 µM | O=C1NC(=O)c2ccc(I)cc2/C1=C/NCc1ccn(-c2ccccc2)c(=O)c1 [Example 517, (4Z)-6-Iodo-4-({[(2-oxo-1-phenyl-1,2-dihydropyridin-4-yl)methyl]amino}methylene)isoquinoline-1,3(2H,4H)-dione] | 0.09 µM | 0.17 µM | 0.25 µM | 0.79 µM | –
– | 0.72 L/h/kg | 0.4 L/kg | 3.4 h | 2.75 µg·h/mL | 12 µg·h/mL | 17% | 2.6 µM | 0.06 µM | 11.6 µM | O=C1NC(=O)c2ccc(I)cc2/C1=C/NCc1ccn(-c2ccoc2)c(=O)c1 [Example 525, (4Z)-4-[({[1-(3-Furyl)-2-oxo-1,2-dihydropyridin-4-yl]methyl}amino)methylene]-6-iodoisoquinoline-1,3(2H,4H)-dione] | 0.14 µM | 0.45 µM | 0.71 µM | 0.71 µM | –
162 to 178 °C (dec.) | 0.9 L/h/kg | 0.2 L/kg | 5.3 h | 2.24 µg·h/mL | 7.2 µg·h/mL | 13% | 0.96 µM | – | – | CCCOc1cnc(CN/C=C2\C(=O)NC(=O)c3ccc(C(C)(C)C)cc32)cc1O [Example 530, 6-tert-Butyl-4-{[(4-hydroxy-5-propoxy-pyridin-2-ylmethyl)-amino]-methylene}-4H-isoquinoline-1,3-dione] | 0.24 µM | 0.28 µM | 0.43 µM | 0.7 µM | –
195 to 218 °C (dec.) | 1.38 L/h/kg | 0.9 L/kg | 5.2 h | 1.45 µg·h/mL | 0.879 µg·h/mL | 2.5% | 2.6 µM | – | 16.3 µM | CC(C)(C)c1ccc2c(c1)/C(=C/NCc1cc(O)c(-c3ccccc3)cn1)C(=O)NC2=O [Example 531, 6-tert-Butyl-4-{[(4-hydroxy-5-phenyl-pyridin-2-ylmethyl)-amino]-methylene}-4H-isoquinoline-1,3-dione] | 0.04 µM | 0.1 µM | 0.15 µM | 0.7 µM | –
– | 8.4 L/h/kg | 4.1 L/kg | 1.9 h | 0.238 µg·h/mL | 1.24 µg·h/mL | 21% | 4 µM | 0.02 µM | 13.1 µM | CC(C)(C)c1ccc2c(c1)/C(=C/NCc1ccc(-c3ccoc3)c(O)c1)C(=O)NC2=O [Example 535, 6-tert-Butyl-4-[(4-furan-3-yl-3-hydroxy-benzylamino)-methylene]-4H-isoquinoline-1,3. -dione] | 0.51 µM | 0.63 µM | 0.86 µM | 2 µM | –
263 to 266 °C (dec.) | 0.3 L/h/kg | 0.2 L/kg | 7.1 h | 6.63 µg·h/mL | 1.04 µg·h/mL | 0.63% | 1.2 µM | – | – | CCCOc1cnc(CN/C=C2\C(=O)NC(=O)c3ccc(C4CCCC4)cc32)cc1O [Example 538, 6-Cyclopentyl-4-{[(4-hydroxy-5-propoxy-pyridin-2-ylmethyl)-amino]-methylene}-4H-isoquinoline-1,3-dione] | 0.06 µM | 0.07 µM | 0.15 µM | 0.3 µM | –
